Source: ChEMBL document CHEMBL1136504, “Novel bicyclic furanopyrimidines with dual anti-VZV and -HCMV activity” (Bioorg Med Chem Lett, 2003)

Key:
HEL [1] = experiment: Concentration required against HEL cell proliferation; assay type: functional; settings: Homo sapiens
HEL [2] = experiment: Minimal cytotoxic concentration required to cause a morphological alteration of human embryonic lung fibroblast(HEL) cell cultures; assay type: functional
Human betaherpesvirus 5 [3] = experiment: Antiviral activity evaluated against human cytomegalovirus (HCMV) AD169; assay type: functional, organism-based
Human betaherpesvirus 5 [4] = experiment: Antiviral activity evaluated against human cytomegalovirus (HCMV) Davis; assay type: functional, organism-based
Human alphaherpesvirus 3 [5] = experiment: Concentration required to give 50% inhibition of replication of VZV OKA in tissue culture; assay type: functional, organism-based
Human alphaherpesvirus 3 [6] = experiment: Antiviral activity evaluated against Varicella Zoster virus (YS); assay type: functional, organism-based
Human alphaherpesvirus 3 [7] = experiment: Antiviral activity evaluated against thymidine kinase competent(TK+) Varicella Zoster virus (07); assay type: functional, organism-based
Human alphaherpesvirus 3 [8] = experiment: Antiviral activity evaluated against thymidine kinase deficient(TK-) Varicella Zoster virus (YS); assay type: functional, organism-based

Row | EC50 (Human betaherpesvirus 5 [3]) | EC50 (Human betaherpesvirus 5 [4]) | EC50 (Human alphaherpesvirus 3 [5]) | EC50 (Human alphaherpesvirus 3 [6]) | EC50 (Human alphaherpesvirus 3 [7]) | EC50 (Human alphaherpesvirus 3 [8]) | Compound | CC50 (HEL [1]) | MCC (HEL [2])
1 | 9.7 µM | 30 µM | 0.05 µM | 0.03 µM | ≥ 200 µM | ≥ 50 µM | O=c1nc2oc(CCCCCCCCCOCCCCCl)cc2cn1[C@H]1C[C@H](O)[C@@H](CO)O1 | > 200 µM | ≥ 200 µM
2 | – | – | 6 µM | – | – | – | CCCCCCCOCCc1cc2cn([C@H]3C[C@H](O)[C@@H](CO)O3)c(=O)nc2o1 | – | –
3 | > 5 µM | 5 µM | 0.05 µM | 0.06 µM | > 5 µM | > 5 µM | CC(C)CCOCCCCCCCCCc1cc2cn([C@H]3C[C@H](O)[C@@H](CO)O3)c(=O)nc2o1 | > 200 µM | 10 µM
4 | > 5 µM | 5 µM | 0.09 µM | 0.1 µM | > 5 µM | > 5 µM | O=c1nc2oc(CCCCCCCCCOCC3CCCC3)cc2cn1[C@H]1C[C@H](O)[C@@H](CO)O1 | > 200 µM | ≥ 5 µM
5 | > 5 µM | > 5 µM | 0.02 µM | 0.03 µM | > 5 µM | > 5 µM | CCCCOCCCCCCCCCc1cc2cn([C@H]3C[C@H](O)[C@@H](CO)O3)c(=O)nc2o1 | > 200 µM | 20 µM
6 | > 5 µM | > 5 µM | 0.01 µM | 0.02 µM | > 5 µM | > 5 µM | CCCCCOCCCCCCCCCc1cc2cn([C@H]3C[C@H](O)[C@@H](CO)O3)c(=O)nc2o1 | > 200 µM | 10 µM

Row | Compound | EC50 (Human betaherpesvirus 5 [3]) | EC50 (Human betaherpesvirus 5 [4]) | EC50 (Human alphaherpesvirus 3 [5]) | EC50 (Human alphaherpesvirus 3 [6]) | EC50 (Human alphaherpesvirus 3 [7]) | EC50 (Human alphaherpesvirus 3 [8]) | CC50 (HEL [1]) | MCC (HEL [2])
7 | Nc1nc2c(ncn2COC(CO)CO)c(=O)[nH]1 [GANCICLOVIR] | 4 µM | 5.7 µM | – | – | – | – | > 150 µM | > 150 µM
